Test systems include SN12C; T47D; UACC-257; U-251; HOP-18; HL-60; SK-MEL-2; MDA-MB-435; MOLT-4; COLO 205; HT-29; SF-295; HCC 2998; MCF7; TK-10; RXF 393; HCT-116; SK-MEL-28; A549; MDA-N.
Holding throughout (test): growth of human tumour cells (NCI), 48 h

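Five concentrations, 48 hours, 96-well plates. Abbreviation: GI50, concentration required for 50% inhibition of growth.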 Activity calls are given as the source filed them. Rule as the data show it: active = GI50 up to about 1.1 µM and inactive = higher.

The text below walks through data of ChEMBL document CHEMBL1201862, “PubChem BioAssay data set” (2004).

Take `NC1=C(Cl)C(=O)c2ccccc2C1=O`: the GI50 was 5.04 µM (inactive) in the experiment with SN12C; 2.87 µM (inactive) with T47D; 2.57 µM (inactive) with UACC-257; 4.34 µM (inactive) with U-251; 9.66 µM (inactive) in the experiment on HOP-18; 3.55 µM (inactive) with HL-60. Moreover, the GI50 is 7.08 µM (inactive) in the experiment with SK-MEL-2; 0.8 µM (active) in the experiment on MDA-MB-435; 5.7 µM (inactive) with MOLT-4; 11.3 µM (inactive) with COLO 205; 4.99 µM (inactive) in the experiment on HT-29; 6.87 µM (inactive) with SF-295. Moreover, the GI50 in the experiment on HCC 2998 is 10.6 µM (inactive); in the experiment with MCF7, 2.06 µM (inactive); in the experiment on TK-10, 22.2 µM (inactive); in the experiment with RXF 393, 7.67 µM (inactive); in the experiment on HCT-116, 3.77 µM (inactive); in the experiment with SK-MEL-28, 4.67 µM (inactive). For the same molecule, the figures for the GI50 with A549 and with MDA-N were 2.93 µM (inactive) and 1.63 µM (inactive), respectively.

Take `CC1(C)C(=O)/C=C\C(=O)C(C)(C)C(=O)/C=C\C(=O)C(C)(C)C2=CC=C(O2)C(C)(C)C(=O)/C=C\C1=O`: the GI50 in the experiment with SN12C was 5.48 µM (inactive); in the experiment with T47D, 0.0775 µM (active); in the experiment on UACC-257, 5.71 µM (inactive); in the experiment with U-251 it was 15.7 µM (inactive); in the experiment with HOP-18, 22.5 µM (inactive); in the experiment with HL-60, 0.684 µM (active). Moreover, the GI50 with SK-MEL-2 was 12.1 µM (inactive); in the experiment on MDA-MB-435, 15.7 µM (inactive); with MOLT-4, 1.27 µM (inactive); in the experiment with COLO 205, 2.29 µM (inactive); with HT-29, 2.89 µM (inactive); in the experiment with SF-295, 17.3 µM (inactive). For the same molecule, the GI50 in the experiment on HCC 2998 was 11.7 µM (inactive); in the experiment with MCF7, 10.6 µM (inactive); in the experiment on TK-10 it was 7.6 µM (inactive); with RXF 393, 2 µM (inactive); in the experiment on HCT-116, 2.08 µM (inactive); in the experiment with SK-MEL-28 it was 4.99 µM (inactive). For the same molecule, the GI50 in the experiment on A549 was 21.1 µM (inactive); in the experiment on MDA-N it was 5.01 µM (inactive).

`Cc1ccc(C(=O)N2CCN(C(=O)c3ccc(C)cc3)c3ccccc32)cc1`: the GI50 is 6.92 µM (inactive) in the experiment with SN12C; 6.43 µM (inactive) with T47D; 4.56 µM (inactive) with UACC-257; 1.9 µM (inactive) in the experiment with U-251; 17.7 µM (inactive) in the experiment on HOP-18; 0.767 µM (active) with HL-60. Besides, the GI50 with SK-MEL-2 was 1.94 µM (inactive); in the experiment with MOLT-4, 3.07 µM (inactive); with COLO 205, 3.39 µM (inactive); in the experiment on HT-29 it was 2.8 µM (inactive); in the experiment on SF-295, 3.09 µM (inactive); in the experiment on HCC 2998, 6.58 µM (inactive). The GI50 in the experiment on MCF7 is 2.48 µM (inactive); in the experiment with TK-10, 10 µM (inactive); with RXF 393, 2.24 µM (inactive); in the experiment with HCT-116 it was 3.04 µM (inactive); with SK-MEL-28, 5.2 µM (inactive); with A549, 7.48 µM (inactive). Also, the GI50 with MDA-N is 0.274 µM (active).

Consider `Cc1ccc(NC(=O)CC/C(CC(=O)C(C)(C)C)=N\NC(=O)C[n+]2ccccc2)cc1C`, for which the GI50 in the experiment with SN12C was > 100 µM (inactive); in the experiment with UACC-257, > 100 µM (inactive); in the experiment with U-251, 87.9 µM (inactive); with HOP-18, > 100 µM (inactive); in the experiment on HL-60, 32 µM (inactive); in the experiment on SK-MEL-2, > 100 µM (inactive). The GI50 was 51.2 µM (inactive) with MOLT-4; > 100 µM (inactive) in the experiment on COLO 205; 91.2 µM (inactive) in the experiment with HT-29; > 100 µM (inactive) with SF-295; > 100 µM (inactive) with HCC 2998; > 100 µM (inactive) in the experiment with TK-10. Besides, the GI50 with RXF 393 was 68.1 µM (inactive); in the experiment with HCT-116, 74.5 µM (inactive); in the experiment with SK-MEL-28 it was > 100 µM (inactive); in the experiment with A549, > 100 µM (inactive).

For the molecule `COC1O[C@@H]2COC(C)(C)O[C@@H]2C(=O)N1Nc1ccc([N+](=O)[O-])cc1` (stereo partly specified), the GI50 in the experiment on SN12C, in the experiment on UACC-257, in the experiment with U-251, in the experiment on HOP-18, with HL-60 and in the experiment with SK-MEL-2 was > 100 µM (inactive) each time. The GI50 in the experiment with MOLT-4 is > 100 µM (inactive); with COLO 205, > 100 µM (inactive); in the experiment with HT-29, 63 µM (inactive); in the experiment on SF-295, > 100 µM (inactive); in the experiment on HCC 2998, > 100 µM (inactive); with TK-10, > 100 µM (inactive). Also, the GI50 in the experiment on RXF 393, in the experiment on HCT-116, in the experiment with SK-MEL-28 and in the experiment on A549 was > 100 µM (inactive) in each case.
